In PubChem BioAssay (NCI):
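Results reflect a 48-hour exposure of cells in 96-well plates to compound at five concentrations. The concentration for 50% growth inhibition is given as GI50. TGI: total growth inhibition.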

Columns and labels:
Assay in all cases: NCI tumour cell line growth inhibition, 48 h
786-0 renal = tested on: 786-0 renal
A498 renal = tested on: A498 renal
A549 NSCLC = tested on: A549 NSCLC
ACHN renal = tested on: ACHN renal
BT-549 breast = tested on: BT-549 breast
CAKI-1 renal = tested on: CAKI-1 renal
CCRF-CEM leukemia = tested on: CCRF-CEM leukemia
COLO 205 colon = tested on: COLO 205 colon
DU-145 prostate = tested on: DU-145 prostate
EKVX NSCLC = tested on: EKVX NSCLC
HCC-2998 colon = tested on: HCC-2998 colon
HCT-116 colon = tested on: HCT-116 colon
HCT-15 colon = tested on: HCT-15 colon
HL-60(TB) leukemia = tested on: HL-60(TB) leukemia
HOP-62 NSCLC = tested on: HOP-62 NSCLC
HOP-92 NSCLC = tested on: HOP-92 NSCLC
HS 578T breast = tested on: HS 578T breast
HT29 colon = tested on: HT29 colon
IGROV1 ovarian = tested on: IGROV1 ovarian
K-562 leukemia = tested on: K-562 leukemia
KM12 colon = tested on: KM12 colon
LOX IMVI melanoma = tested on: LOX IMVI melanoma
M14 melanoma = tested on: M14 melanoma
MALME-3M melanoma = tested on: MALME-3M melanoma
MCF7 breast = tested on: MCF7 breast
MDA-MB-231 breast = tested on: MDA-MB-231 breast
MDA-MB-435 = tested on: MDA-MB-435
MOLT-4 leukemia = tested on: MOLT-4 leukemia
NCI-H226 lung = tested on: NCI-H226 lung
NCI-H460 lung = tested on: NCI-H460 lung
NCI-H522 lung = tested on: NCI-H522 lung
NCI/ADR-RES ovarian = tested on: NCI/ADR-RES ovarian
OVCAR-3 ovarian = tested on: OVCAR-3 ovarian
OVCAR-4 ovarian = tested on: OVCAR-4 ovarian
OVCAR-5 ovarian = tested on: OVCAR-5 ovarian
OVCAR-8 ovarian = tested on: OVCAR-8 ovarian
PC-3 prostate = tested on: PC-3 prostate
RPMI-8226 leukemia = tested on: RPMI-8226 leukemia
RXF 393 renal = tested on: RXF 393 renal
SF-268 CNS = tested on: SF-268 CNS
SF-295 CNS = tested on: SF-295 CNS
SF-539 CNS = tested on: SF-539 CNS
SK-MEL-2 melanoma = tested on: SK-MEL-2 melanoma
SK-MEL-28 melanoma = tested on: SK-MEL-28 melanoma
SK-MEL-5 melanoma = tested on: SK-MEL-5 melanoma
SK-OV-3 ovarian = tested on: SK-OV-3 ovarian
SN12C renal = tested on: SN12C renal
SNB-19 CNS = tested on: SNB-19 CNS
SNB-75 CNS = tested on: SNB-75 CNS
SR leukemia = tested on: SR leukemia
SW-620 colon = tested on: SW-620 colon
T-47D breast = tested on: T-47D breast
TK-10 renal = tested on: TK-10 renal
U251 CNS = tested on: U251 CNS
UACC-257 melanoma = tested on: UACC-257 melanoma
UACC-62 melanoma = tested on: UACC-62 melanoma
UO-31 renal = tested on: UO-31 renal

## CNC(=O)c1cc(-n2ccc3cc(NC(=O)Nc4ccc(N5CCOCC5)c(C(F)(F)F)c4)ccc32)ccn1
786-0 renal
  GI50: 2.89 µM
  TGI: > 33.3 µM
A498 renal
  GI50: > 33.3 µM
  TGI: > 33.3 µM
A549 NSCLC
  GI50: 5.15 µM
  TGI: > 33.3 µM
ACHN renal
  GI50: 5.69 µM
  TGI: > 33.3 µM
BT-549 breast
  GI50: 1.27 µM
  TGI: 8.9 µM
CAKI-1 renal
  GI50: 10 µM
  TGI: > 33.3 µM
CCRF-CEM leukemia
  GI50: 1.53 µM
  TGI: > 33.3 µM
COLO 205 colon
  GI50: 2.09 µM
  TGI: > 33.3 µM
DU-145 prostate
  GI50: 10.4 µM
  TGI: > 33.3 µM
EKVX NSCLC
  GI50: > 33.3 µM
  TGI: > 33.3 µM
HCC-2998 colon
  GI50: 11.5 µM
  TGI: > 33.3 µM
HCT-116 colon
  GI50: 2.09 µM
  TGI: > 33.3 µM
HCT-15 colon
  GI50: 1.93 µM
  TGI: > 33.3 µM
HL-60(TB) leukemia
  GI50: 1.62 µM
  TGI: > 33.3 µM
HOP-62 NSCLC
  GI50: 1.52 µM
  TGI: 14.6 µM
HOP-92 NSCLC
  GI50: 2.11 µM
  TGI: > 33.3 µM
HS 578T breast
  GI50: 1.85 µM
  TGI: > 33.3 µM
HT29 colon
  GI50: 2.01 µM
  TGI: > 33.3 µM
IGROV1 ovarian
  GI50: 3.87 µM
  TGI: > 33.3 µM
K-562 leukemia
  GI50: 1.24 µM
  TGI: > 33.3 µM
KM12 colon
  GI50: 0.159 µM
  TGI: > 33.3 µM
LOX IMVI melanoma
  GI50: 0.251 µM
  TGI: > 33.3 µM
M14 melanoma
  GI50: 3.11 µM
  TGI: > 33.3 µM
MALME-3M melanoma
  GI50: 3.89 µM
  TGI: > 33.3 µM
MCF7 breast
  GI50: 1.7 µM
  TGI: > 33.3 µM
MDA-MB-231 breast
  GI50: 17.9 µM
  TGI: > 33.3 µM
MDA-MB-435
  GI50: 5.73 µM
  TGI: > 33.3 µM
MOLT-4 leukemia
  GI50: 1.93 µM
  TGI: > 33.3 µM
NCI-H226 lung
  GI50: 3.69 µM
  TGI: > 33.3 µM
NCI-H460 lung
  GI50: 4.39 µM
  TGI: > 33.3 µM
NCI-H522 lung
  GI50: 2.9 µM
  TGI: > 33.3 µM
NCI/ADR-RES ovarian
  GI50: 7.51 µM
  TGI: > 33.3 µM
OVCAR-3 ovarian
  GI50: 6.48 µM
  TGI: > 33.3 µM
OVCAR-4 ovarian
  GI50: 7.76 µM
  TGI: > 33.3 µM
OVCAR-5 ovarian
  GI50: 14.6 µM
  TGI: > 33.3 µM
OVCAR-8 ovarian
  GI50: 4.5 µM
  TGI: > 33.3 µM
PC-3 prostate
  GI50: 1.31 µM
  TGI: > 33.3 µM
RPMI-8226 leukemia
  GI50: 1.04 µM
  TGI: 3.11 µM
RXF 393 renal
  GI50: 0.595 µM
  TGI: 1.62 µM
SF-268 CNS
  GI50: 27.2 µM
  TGI: > 33.3 µM
SF-295 CNS
  GI50: 0.938 µM
  TGI: 3.24 µM
SF-539 CNS
  GI50: 1.41 µM
  TGI: > 33.3 µM
SK-MEL-2 melanoma
  GI50: 11.3 µM
  TGI: > 33.3 µM
SK-MEL-28 melanoma
  GI50: 11.7 µM
  TGI: > 33.3 µM
SK-MEL-5 melanoma
  GI50: 1.32 µM
  TGI: 7.58 µM
SK-OV-3 ovarian
  GI50: 26.7 µM
  TGI: > 33.3 µM
SN12C renal
  GI50: 9.21 µM
  TGI: > 33.3 µM
SNB-19 CNS
  GI50: 15 µM
  TGI: > 33.3 µM
SNB-75 CNS
  GI50: 6.38 µM
  TGI: > 33.3 µM
SR leukemia
  GI50: 1.88 µM
  TGI: > 33.3 µM
SW-620 colon
  GI50: 8.36 µM
  TGI: > 33.3 µM
T-47D breast
  GI50: 0.907 µM
  TGI: 15.5 µM
TK-10 renal
  GI50: 27.6 µM
  TGI: > 33.3 µM
U251 CNS
  GI50: 3.23 µM
  TGI: > 33.3 µM
UACC-257 melanoma
  GI50: 8.89 µM
  TGI: > 33.3 µM
UACC-62 melanoma
  GI50: 1.27 µM
  TGI: 14.7 µM
UO-31 renal
  GI50: 3.55 µM
  TGI: > 33.3 µM
